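Values below derive from 48-hour exposures of cells grown in 96-well plates, with endpoints linearly interpolated between the two concentrations bracketing the appropriate inhibition level. TGI denotes the concentration required for complete inhibition of growth.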
How the values were obtained:
Assay in all cases: growth of human tumour cells (NCI), 48 h
[1] = tested on: HCT-15 colon
[2] = tested on: SF-295 CNS
[3] = tested on: CAKI-1 renal
[4] = tested on: A498 renal
[5] = tested on: BT-549 breast
[6] = tested on: A549 NSCLC
[7] = tested on: EKVX NSCLC
[8] = tested on: SR leukemia
[9] = tested on: LOX IMVI melanoma
[10] = tested on: SK-MEL-28 melanoma
[11] = tested on: KM12 colon
[12] = tested on: IGROV1 ovarian
[13] = tested on: MDA-MB-231 breast
[14] = tested on: HOP-62 NSCLC
[15] = tested on: RXF 393 renal
[16] = tested on: UACC-257 melanoma
[17] = tested on: K-562 leukemia
[18] = tested on: MALME-3M melanoma
[19] = tested on: MOLT-4 leukemia
[20] = tested on: U251 CNS
[21] = tested on: OVCAR-8 ovarian
[22] = tested on: HT29 colon
[23] = tested on: SW-620 colon
[24] = tested on: UO-31 renal
[25] = tested on: NCI-H23 lung
[26] = tested on: SF-539 CNS
[27] = tested on: OVCAR-5 ovarian
[28] = tested on: RPMI-8226 leukemia
[29] = tested on: TK-10 renal
[30] = tested on: SF-268 CNS
[31] = tested on: SK-OV-3 ovarian
[32] = tested on: ACHN renal
[33] = tested on: 786-0 renal
[34] = tested on: PC-3 prostate
[35] = tested on: HCC-2998 colon
[36] = tested on: M14 melanoma
[37] = tested on: MDA-N
[38] = tested on: NCI/ADR-RES ovarian
[39] = tested on: SNB-75 CNS
[40] = tested on: HS 578T breast
[41] = tested on: NCI-H522 lung
[42] = tested on: MCF7 breast
[43] = tested on: NCI-H460 lung
[44] = tested on: SK-MEL-2 melanoma
[45] = tested on: COLO 205 colon
[46] = tested on: OVCAR-4 ovarian
[47] = tested on: MDA-MB-435
[48] = tested on: SN12C renal
[49] = tested on: OVCAR-3 ovarian
[50] = tested on: DU-145 prostate
[51] = tested on: HOP-92 NSCLC
[52] = tested on: UACC-62 melanoma
[53] = tested on: SK-MEL-5 melanoma
[54] = tested on: HCT-116 colon
[55] = tested on: CCRF-CEM leukemia
[56] = tested on: T-47D breast
[57] = tested on: SNB-19 CNS
[58] = tested on: NCI-H226 lung
[59] = tested on: HL-60(TB) leukemia

SMILES: Oc1ccc2ccccc2c1C=NCc1c(O)ccc2ccccc12
- TGI [1]: > 100 µM
- TGI [2]: > 100 µM
- TGI [3]: > 100 µM
- TGI [4]: 74.5 µM
- TGI [5]: > 100 µM
- TGI [6]: > 100 µM
- TGI [7]: 70.7 µM
- TGI [8]: > 100 µM
- TGI [9]: > 100 µM
- TGI [10]: > 100 µM
- TGI [11]: > 100 µM
- TGI [12]: > 100 µM
- TGI [13]: > 100 µM
- TGI [14]: > 100 µM
- TGI [15]: 9.34 µM
- TGI [16]: > 100 µM
- TGI [17]: > 100 µM
- TGI [18]: > 100 µM
- TGI [19]: > 100 µM
- TGI [20]: > 100 µM
- TGI [21]: > 100 µM
- TGI [22]: > 100 µM
- TGI [23]: > 100 µM
- TGI [24]: > 100 µM
- TGI [25]: > 100 µM
- TGI [26]: > 100 µM
- TGI [27]: > 100 µM
- TGI [28]: > 100 µM
- TGI [29]: > 100 µM
- TGI [30]: > 100 µM
- TGI [31]: > 100 µM
- TGI [32]: > 100 µM
- TGI [33]: > 100 µM
- TGI [34]: > 100 µM
- TGI [35]: > 100 µM
- TGI [36]: > 100 µM
- TGI [37]: > 100 µM
- TGI [38]: > 100 µM
- TGI [39]: > 100 µM
- TGI [40]: > 100 µM
- TGI [41]: 50.5 µM
- TGI [42]: > 100 µM
- TGI [43]: > 100 µM
- TGI [44]: > 100 µM
- TGI [45]: > 100 µM
- TGI [46]: > 100 µM
- TGI [47]: > 100 µM
- TGI [48]: > 100 µM
- TGI [49]: > 100 µM
- TGI [50]: > 100 µM
- TGI [51]: > 100 µM
- TGI [52]: > 100 µM
- TGI [53]: > 100 µM
- TGI [54]: > 100 µM
- TGI [55]: > 100 µM
- TGI [56]: > 100 µM
- TGI [57]: > 100 µM

SMILES: CCS(=O)c1c2cc(OC)ccc2nc2ccc(OC)cc12 (stereo unspecified)
- TGI [1]: > 52.5 µM
- TGI [2]: 63.4 µM
- TGI [3]: 9.44 µM
- TGI [4]: 33.6 µM
- TGI [5]: 31.9 µM
- TGI [6]: 51.1 µM
- TGI [7]: 32.3 µM
- TGI [8]: > 25 µM
- TGI [9]: > 100 µM
- TGI [10]: 23.4 µM
- TGI [11]: 41 µM
- TGI [12]: 10 µM
- TGI [13]: 11.2 µM
- TGI [14]: 51.1 µM
- TGI [15]: 17.2 µM
- TGI [16]: 12 µM
- TGI [17]: 5.81 µM
- TGI [18]: 12.6 µM
- TGI [19]: > 23.8 µM
- TGI [20]: > 55.3 µM
- TGI [21]: 15.5 µM
- TGI [22]: 10 µM
- TGI [23]: > 65.9 µM
- TGI [24]: 13.1 µM
- TGI [25]: 19.9 µM
- TGI [26]: > 59 µM
- TGI [27]: 41.7 µM
- TGI [28]: 16.5 µM
- TGI [58]: 47.8 µM
- TGI [29]: 10.3 µM
- TGI [30]: > 62 µM
- TGI [31]: 47.5 µM
- TGI [32]: 13 µM
- TGI [33]: 6.42 µM
- TGI [34]: 24.9 µM
- TGI [35]: 41.8 µM
- TGI [36]: 37.6 µM
- TGI [37]: 16.3 µM
- TGI [38]: 44.6 µM
- TGI [39]: 38.2 µM
- TGI [40]: 38.9 µM
- TGI [41]: 3.97 µM
- TGI [42]: > 100 µM
- TGI [43]: > 68 µM
- TGI [44]: 35.3 µM
- TGI [45]: 15.4 µM
- TGI [46]: 36.1 µM
- TGI [47]: 26.4 µM
- TGI [48]: 8.99 µM
- TGI [59]: > 100 µM
- TGI [49]: 14.9 µM
- TGI [50]: 6.49 µM
- TGI [51]: > 53.1 µM
- TGI [52]: 33.4 µM
- TGI [53]: 30.3 µM
- TGI [54]: 7.52 µM
- TGI [55]: > 25.6 µM
- TGI [56]: 5.85 µM
- TGI [57]: 45.4 µM

— PubChem BioAssay (NCI)
